Assay results as given in patent US20090252754A1, “Vaccines containing the hiv tat protein as an adjuvant for the enhancement of cytotoxic t-cell responses” (priority 2003, published 2009).

Assays:
[1] = tested on: proteasomes purified from MIN and MON LCL's; experiment: Enzyme assays of proteasomes purified from LCL's (Suc-LLVY-AMC, Boc-LRR-AMC, Ac-YVAD-AMC); type: biochemical, human
Description: Cells (5×10^7) were washed in cold PBS and resuspended in buffer containing 50 mM Tris-HCl pH 7.5, 5 mM MgCl2, 1 mM dithiothreitol (DTT, Sigma), 2 mM ATP, 250 mM sucrose. Glass beads equivalent to the volume of the cellular suspension were added and cells were vortexed for 1 min at 4° C. Beads and cell debris were removed by 5 minutes centrifugation at 1000×g, followed by 20 minutes centrifugation at 10,000×g. Supernatants were ultracentrifuged for 1 hour at 100,000×g^44. Supernatants were loaded into an affinity column containing an agarose matrix derivatised with the MCP21 mAb specific for the α2 subunit of the proteasome (Affinity, Exeter, UK). […] Protein concentration was determined using BCA protocol (Pierce Chemical).
The fluorogenic substrates Suc-LLVY-AMC, Boc-LRR-AMC and Ac-YVAD-AMC were used to measure chymotrypsin-like, trypsin-like and post-acidic proteasome activities, respectively. […] Fluorescence was determined by a fluorimeter (Spectrafluor plus, Tecan, Salzburg, Austria) using an excitation of 360 nm and emission of 465 nm. Proteasome activity is expressed in arbitrary fluorescence units^11.
To investigate whether the differences in subunit composition detected by Western blot analysis correlated with differences in enzymatic activity, we analysed the cleavage specificity of equal amount of proteasomes isolated from MIN-Tat and MON-Tat cells or control cells. […]

[2] = tested on: MIN and MON LCL's (EBV IVT, AVF, YLQ, CLG epitopes); experiment: Cytotoxicity assay of EBV epitope-specific CTLs against LCL targets
Description: HLA A11-restricted EBV-specific CTL cultures reacting against the EBNA4-derived [sequence] (SEQ ID NO 280) (IVT) and [sequence] […] (SEQ ID NO 282) (CLG) epitope, corresponding to amino acid 426-434^28, and the Lmp1-derived [sequence] […] The first stimulation was performed in RPMI 1640 medium containing 10% FCS. A second and a third stimulation were performed in the same conditions on day 7 and day 14. Starting from day 8 the medium was supplemented with 10 U/ml rIL-2 (Chiron, Milan, Italy).
Target cells were labelled with Na2^51CrO4 for 90 min at 37° C. Cytotoxicity tests were routinely run at different effector: target ratios in triplicate. Percent specific lysis was calculated as 100×(cpm sample−cpm medium)/(cpm Triton X-100−cpm medium)^27. Spontaneous release was always less than 20%.
To this purpose, the HLA-2 and -A11 positive MIN LCL and the HLA-A2 positive MON LCL, transduced or not with Tat, were tested as target in cytotoxic assays using CTL cultures specific for the IVT, AVF, CLG and YLQ epitopes (FIG. 6).

LMP2 = LMP2 expression in splenocytes of mice treated i.m. with Tat (Western blot); type: in vivo; conditions: Balb/c mice, 1 μg i.m., 3 consecutive treatments
Description: Equal amounts of proteins were loaded on a 12% SDS-PAGE gel and electroblotted onto Protran nitrocellulose membranes (Schleicher & Schuell, Keene, Hampshire, USA). The blots were probed with antibodies specific for α2, LMP2, LMP7, MECL1, and PA28α subunits (Affinity, Exeter, UK) and developed by enhanced chemiluminescence (ECL, Amersham Pharmacia Biotech, Uppsala, SW).
Animal use was according to national and institutional guidelines. Seven-to-eight week old female Balb/c mice (Nossan, Milan, Italy) were injected with native monomeric biologically active Tat protein (1 μg) resuspended in degassed sterile PBS. Control mice were injected with oxidised Tat (1 μg) or with PBS alone. Samples (100 μl) were given by intramuscular (i.m.) injections in the quadriceps muscles of the posterior legs. Each experimental group consisted of three mice, and the experiment was repeated twice. Mice were boosted at days 11 and 20 after the first injection. Seven days after the last injection, animals were anaesthetised intraperitoneally (i.p.) with 100 μl of isotonic solution containing 1 mg of Inoketan (Virbac, Milan, Italy), and 200 μg Rompun (Bayer, Milan, Italy) and sacrificed to collect spleens. Mononuclear cells from individual spleens were purified using cells strainers, resuspended in PBS containing 20 mM EDTA, and treated with a red blood cells lysis buffer for 4 minutes at room temperature. […]

[3] = tested on: proteasomes purified from Jurkat cells; experiment: Enzymatic assays of proteasomes purified from Jurkat cells treated with Tat; type: biochemical, human; conditions: proteasomes from Jurkat cells treated for 24 h with 1 μg/ml Tat protein vs control cells
Description: Cells were lysed with glass beads as previously described (4). Supernatants were ultracentrifuged for 1 h at 100,000 g and loaded into an affinity column containing a matrix derivatised with the MCP21 mAb specific for the α2 subunit of the proteasome (Affinity, Exeter, UK). Proteasomes were eluted with 25 mM Tris-HCl pH 7.5 containing 2 M NaCl, and 0.5 ml fractions were collected. Homogeneity of the eluted material was confirmed by analysis of an aliquot by SDS 12% PAGE and Coomassie blue staining of the gel. Fractions containing proteasomes were combined and dialysed against 25 mM Tris-HCl pH 7.5. Protein concentration was determined using the BCA method (Pierce Chemical, Rockford, Ill.).
The chymotrypsin-like, trypsin-like and post-acidic activities of purified proteasomes were tested using the fluorogenic substrates Suc-LLVY-AMC, Boc-LRR-AMC and Ac-YVAD-AMC, respectively, as previously described (4). Fluorescence was determined by a fluorimeter (Spectrafluor plus, Tecan, Salzburg, Austria). Proteasome activity is expressed as arbitrary fluorescence units.
To investigate whether the differences in subunit composition correlated with differences in enzymatic activity, we analysed the cleavage specificity of equal amounts of proteasomes purified from Jurkat cells treated for 24 h with 1 μg/ml Tat protein or from control cells. […]

[4] = LCL expressing endogenous Tat vs empty vector
[5] = MIN LCL treated with 0.1 μg/ml Tat protein for 24 hours vs untreated

With “Tat: HIV-1 Tat protein from HTLV type IIIB isolate, expressed in E. Coli or endogenously in cells; wild type SEQ ID NO 284” the “three proteolytic activities of proteasomes” value ([1]; proteasomes from MIN and MON LCL's treated with 0.1 μg/ml of Tat (data not shown)) was “increase of all three proteolytic activities”, the “chymotryptic-like, tryptic-like and post-acidic activities of proteasomes” value ([1]; proteasomes from MIN-Tat and MON-Tat cells vs control cells) was “higher” and the “IVT- and AVF-specific CTL killing” value [2, 4] was “decrease”. The “YLQ- and CLG-specific killing” value [2, 4] was “increase”, the “lysis by YLQ- and CLG-specific CTLs” value [2, 5] was “lysed at higher efficiency” and the “sensitivity to IVT- and AVF-specific CTL killing” value [2, 5] was “less sensitive”. For the same substance, the “LMP2 expression in splenocytes” value (LMP2) was “down-regulation” and the “chymotryptic-like, tryptic-like and post-acidic activities” value [3] was “all augmented”.
